18 molecules from ChEMBL document CHEMBL1154202, “Arylcarboxyamino-substituted diaryl ureas as potent and selective FLT3 inhibitors” (Bioorg Med Chem Lett, 2009) can be followed below.

Series [1] has as its system MV4-11. As to the kind of experiment: Antitumor activity against human MV411 cells assessed as inhibition of cell proliferation. Format: functional, cell-based.
Series [2] addresses Vascular endothelial growth factor receptor 2 (Homo sapiens, UniProt P35968). Kind of series: Binding affinity to VEGFR2.
Series [3] addresses Mast/stem cell growth factor receptor Kit (Homo sapiens, UniProt P10721). As to the kind of experiment: Binding affinity to KIT.
Series [4] deals with Macrophage colony-stimulating factor 1 receptor (Homo sapiens, UniProt P07333). As to the kind of experiment: Binding affinity to CSF1R.
Chain of Macrophage colony-stimulating factor 1 receptor (P07333 whole entry): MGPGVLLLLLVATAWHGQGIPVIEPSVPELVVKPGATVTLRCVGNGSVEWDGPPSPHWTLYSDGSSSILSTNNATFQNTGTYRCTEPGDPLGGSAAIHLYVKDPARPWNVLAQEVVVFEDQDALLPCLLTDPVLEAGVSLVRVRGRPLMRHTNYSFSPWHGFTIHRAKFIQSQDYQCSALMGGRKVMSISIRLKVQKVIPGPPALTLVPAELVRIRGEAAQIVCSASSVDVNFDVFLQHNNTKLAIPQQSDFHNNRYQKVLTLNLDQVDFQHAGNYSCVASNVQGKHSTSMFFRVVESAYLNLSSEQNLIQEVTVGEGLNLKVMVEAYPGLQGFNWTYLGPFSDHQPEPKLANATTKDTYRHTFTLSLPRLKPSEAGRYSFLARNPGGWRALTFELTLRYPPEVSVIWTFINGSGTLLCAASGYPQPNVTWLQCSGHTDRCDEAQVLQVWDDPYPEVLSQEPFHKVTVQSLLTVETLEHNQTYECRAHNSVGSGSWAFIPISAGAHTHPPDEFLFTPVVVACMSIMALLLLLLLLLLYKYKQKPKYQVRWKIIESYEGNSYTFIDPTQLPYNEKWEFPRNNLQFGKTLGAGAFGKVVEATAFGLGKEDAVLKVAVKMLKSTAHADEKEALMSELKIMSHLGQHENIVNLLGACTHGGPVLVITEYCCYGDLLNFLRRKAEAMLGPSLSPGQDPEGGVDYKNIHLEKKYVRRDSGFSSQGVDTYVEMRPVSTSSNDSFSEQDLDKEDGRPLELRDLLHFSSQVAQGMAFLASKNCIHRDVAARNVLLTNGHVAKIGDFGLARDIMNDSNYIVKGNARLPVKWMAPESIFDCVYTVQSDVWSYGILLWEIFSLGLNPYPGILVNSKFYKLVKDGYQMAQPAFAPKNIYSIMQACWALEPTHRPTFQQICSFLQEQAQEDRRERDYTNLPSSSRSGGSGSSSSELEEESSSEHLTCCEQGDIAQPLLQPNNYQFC
Series [5] concerns the target Proto-oncogene tyrosine-protein kinase receptor Ret (Homo sapiens, UniProt P07949). As to the kind of experiment: Binding affinity to RET.
The target of series [6] is Platelet-derived growth factor receptor beta (Homo sapiens, UniProt P09619). As to the kind of experiment: Binding affinity to PDGFRbeta.
Chain of Platelet-derived growth factor receptor beta (P09619 whole entry): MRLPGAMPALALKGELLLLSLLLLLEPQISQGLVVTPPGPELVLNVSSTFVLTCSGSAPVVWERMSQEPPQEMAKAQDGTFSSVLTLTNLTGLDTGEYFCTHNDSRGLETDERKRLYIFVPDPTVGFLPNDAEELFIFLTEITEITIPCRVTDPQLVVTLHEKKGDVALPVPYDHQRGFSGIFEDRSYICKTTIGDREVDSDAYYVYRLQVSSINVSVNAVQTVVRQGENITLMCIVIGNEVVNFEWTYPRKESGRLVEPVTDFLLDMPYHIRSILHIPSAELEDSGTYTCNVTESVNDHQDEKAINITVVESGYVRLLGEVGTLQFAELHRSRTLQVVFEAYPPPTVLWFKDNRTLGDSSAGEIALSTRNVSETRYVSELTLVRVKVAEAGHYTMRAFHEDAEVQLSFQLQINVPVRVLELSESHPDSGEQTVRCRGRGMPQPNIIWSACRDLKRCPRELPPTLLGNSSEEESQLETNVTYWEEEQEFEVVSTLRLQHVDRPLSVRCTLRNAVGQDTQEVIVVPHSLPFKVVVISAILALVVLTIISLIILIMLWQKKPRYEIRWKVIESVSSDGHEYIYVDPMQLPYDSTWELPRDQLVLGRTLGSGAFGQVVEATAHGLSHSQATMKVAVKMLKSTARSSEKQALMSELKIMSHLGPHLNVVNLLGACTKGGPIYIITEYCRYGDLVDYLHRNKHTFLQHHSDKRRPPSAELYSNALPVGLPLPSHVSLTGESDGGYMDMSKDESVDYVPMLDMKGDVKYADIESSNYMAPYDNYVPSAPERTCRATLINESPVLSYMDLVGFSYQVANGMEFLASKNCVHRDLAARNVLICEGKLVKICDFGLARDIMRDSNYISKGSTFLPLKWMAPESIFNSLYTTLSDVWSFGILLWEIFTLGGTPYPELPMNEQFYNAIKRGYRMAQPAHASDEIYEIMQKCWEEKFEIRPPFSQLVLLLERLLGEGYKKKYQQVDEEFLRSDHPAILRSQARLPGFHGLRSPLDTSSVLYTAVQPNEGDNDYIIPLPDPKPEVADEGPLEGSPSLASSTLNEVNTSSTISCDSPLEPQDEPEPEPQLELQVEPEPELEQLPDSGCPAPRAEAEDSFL
Series [7] can be described thus: Cmax in nude mouse at 10 mg/kg, po. Format: ADME, organism-based. Set-up: dose 10 mg/kg, route oral. The conditions noted are these: in vivo.
Series [8] has as its system Mus musculus. As to the kind of experiment: AUC in nude mouse at 10 mg/kg, po. Format: ADME, organism-based, Plasma. The arrangement: dose 10 mg/kg, route oral. The conditions noted are these: in vivo.
The nature of series [9]: Half life in nude mouse at 10 mg/kg, po. Format: ADME, organism-based. The arrangement: dose 10 mg/kg, route oral. The conditions noted are these: in vivo.
The test system of series [10] is MV4-11. Kind of series: Antitumor activity against human MV411 cells in xenografted athymic nude mouse model assessed as decrease in tumor size at 10 mg/kg, po qd for 28 days measured after 29 to 36 days. Format: functional. Background: A xenograft is tissue or cells of one species grown in another, often human tumour cells in immunodeficient mice.
Series [11] relates to MV4-11. As to the kind of experiment: Antitumor activity against human MV411 cells in xenografted athymic nude mouse model assessed as decrease in tumor size at 10 mg/kg, po qd for 28 days measured after 36 to 56 days. Format: functional, organism-based. The arrangement: dose 10 mg/kg.
Series [12] deals with MV4-11. As to the kind of experiment: Antitumor activity against human MV411 cells in xenografted athymic nude mouse model assessed as decrease in tumor size at 10 mg/kg, po qd for 28 days. Format: functional, organism-based. Set-up: dose 10 mg/kg.
Series [13] concerns Mus musculus. Kind of series: Toxicity in human MV411 cells in xenografted athymic nude mouse model assessed as change in body weight at 10 mg/kg, po qd for 28 days. Conditions: in vivo, 672 h. The arrangement: dose 10 mg/kg, route oral. Format: organism-based, MV4-11.
For series [14], the target named is T1, Receptor-type tyrosine-protein kinase FLT3 (Homo sapiens, UniProt P36888).
T1 sequence (P36888 whole entry): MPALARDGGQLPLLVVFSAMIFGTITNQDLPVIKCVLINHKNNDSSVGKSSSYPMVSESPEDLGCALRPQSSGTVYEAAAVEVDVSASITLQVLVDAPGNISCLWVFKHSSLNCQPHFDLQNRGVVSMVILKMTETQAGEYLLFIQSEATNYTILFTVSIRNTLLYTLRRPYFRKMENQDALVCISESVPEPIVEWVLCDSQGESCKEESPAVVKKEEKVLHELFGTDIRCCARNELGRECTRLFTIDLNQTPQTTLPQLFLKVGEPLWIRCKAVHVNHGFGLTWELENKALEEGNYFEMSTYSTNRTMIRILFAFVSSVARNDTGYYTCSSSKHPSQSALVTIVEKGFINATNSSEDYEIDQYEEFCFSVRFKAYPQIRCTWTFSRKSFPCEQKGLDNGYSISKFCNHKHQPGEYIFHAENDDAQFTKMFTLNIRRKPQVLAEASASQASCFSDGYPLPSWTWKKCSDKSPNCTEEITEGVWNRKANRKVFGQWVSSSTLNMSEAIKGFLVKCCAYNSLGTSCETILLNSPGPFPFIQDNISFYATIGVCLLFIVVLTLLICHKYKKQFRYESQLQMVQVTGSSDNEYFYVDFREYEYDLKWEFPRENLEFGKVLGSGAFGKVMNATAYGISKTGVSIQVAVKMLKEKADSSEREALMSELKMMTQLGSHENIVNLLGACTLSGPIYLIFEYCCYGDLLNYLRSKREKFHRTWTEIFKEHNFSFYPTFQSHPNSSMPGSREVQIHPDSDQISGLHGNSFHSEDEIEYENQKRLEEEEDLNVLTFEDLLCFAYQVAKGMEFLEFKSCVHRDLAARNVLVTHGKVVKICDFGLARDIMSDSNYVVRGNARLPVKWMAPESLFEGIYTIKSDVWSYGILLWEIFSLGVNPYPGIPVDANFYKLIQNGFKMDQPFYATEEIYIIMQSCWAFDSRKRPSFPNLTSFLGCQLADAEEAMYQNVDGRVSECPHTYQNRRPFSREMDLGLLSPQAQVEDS

Series [15] relates to MV4-11. Kind of series: Antitumor activity against human MV411 cells in xenografted athymic nude mouse model assessed as decrease in tumor size at 30 mg/kg, po qd for 28 days. Format: functional, organism-based. The arrangement: dose 30 mg/kg.

SMILES strings stand for the structures. Activity calls are given as the source filed them.

Chain of Mast/stem cell growth factor receptor Kit (P10721 whole entry): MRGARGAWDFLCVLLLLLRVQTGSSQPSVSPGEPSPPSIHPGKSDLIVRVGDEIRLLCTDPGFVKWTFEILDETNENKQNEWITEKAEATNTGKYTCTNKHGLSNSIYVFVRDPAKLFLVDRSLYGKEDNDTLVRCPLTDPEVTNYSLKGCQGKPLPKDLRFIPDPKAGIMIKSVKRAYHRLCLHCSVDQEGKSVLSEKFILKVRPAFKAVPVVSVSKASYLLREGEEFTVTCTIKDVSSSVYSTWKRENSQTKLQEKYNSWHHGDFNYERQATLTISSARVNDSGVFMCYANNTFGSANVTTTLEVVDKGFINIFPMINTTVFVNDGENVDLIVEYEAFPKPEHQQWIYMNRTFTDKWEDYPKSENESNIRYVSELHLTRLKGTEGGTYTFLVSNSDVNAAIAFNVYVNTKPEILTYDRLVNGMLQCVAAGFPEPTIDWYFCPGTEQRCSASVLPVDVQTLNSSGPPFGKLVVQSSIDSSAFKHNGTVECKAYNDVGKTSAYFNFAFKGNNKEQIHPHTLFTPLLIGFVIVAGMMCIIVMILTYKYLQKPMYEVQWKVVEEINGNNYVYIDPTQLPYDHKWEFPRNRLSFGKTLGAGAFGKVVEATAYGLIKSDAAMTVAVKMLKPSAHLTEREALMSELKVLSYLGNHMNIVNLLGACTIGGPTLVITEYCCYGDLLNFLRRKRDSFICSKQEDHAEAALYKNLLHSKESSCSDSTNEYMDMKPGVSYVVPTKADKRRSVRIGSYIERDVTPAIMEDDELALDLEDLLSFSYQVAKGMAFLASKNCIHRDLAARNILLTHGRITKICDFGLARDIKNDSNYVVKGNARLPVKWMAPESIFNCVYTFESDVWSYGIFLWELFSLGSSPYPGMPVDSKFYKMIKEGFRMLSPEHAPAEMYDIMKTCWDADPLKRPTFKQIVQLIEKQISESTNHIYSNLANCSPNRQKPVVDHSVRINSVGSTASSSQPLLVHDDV
Chain of Proto-oncogene tyrosine-protein kinase receptor Ret (P07949 whole entry): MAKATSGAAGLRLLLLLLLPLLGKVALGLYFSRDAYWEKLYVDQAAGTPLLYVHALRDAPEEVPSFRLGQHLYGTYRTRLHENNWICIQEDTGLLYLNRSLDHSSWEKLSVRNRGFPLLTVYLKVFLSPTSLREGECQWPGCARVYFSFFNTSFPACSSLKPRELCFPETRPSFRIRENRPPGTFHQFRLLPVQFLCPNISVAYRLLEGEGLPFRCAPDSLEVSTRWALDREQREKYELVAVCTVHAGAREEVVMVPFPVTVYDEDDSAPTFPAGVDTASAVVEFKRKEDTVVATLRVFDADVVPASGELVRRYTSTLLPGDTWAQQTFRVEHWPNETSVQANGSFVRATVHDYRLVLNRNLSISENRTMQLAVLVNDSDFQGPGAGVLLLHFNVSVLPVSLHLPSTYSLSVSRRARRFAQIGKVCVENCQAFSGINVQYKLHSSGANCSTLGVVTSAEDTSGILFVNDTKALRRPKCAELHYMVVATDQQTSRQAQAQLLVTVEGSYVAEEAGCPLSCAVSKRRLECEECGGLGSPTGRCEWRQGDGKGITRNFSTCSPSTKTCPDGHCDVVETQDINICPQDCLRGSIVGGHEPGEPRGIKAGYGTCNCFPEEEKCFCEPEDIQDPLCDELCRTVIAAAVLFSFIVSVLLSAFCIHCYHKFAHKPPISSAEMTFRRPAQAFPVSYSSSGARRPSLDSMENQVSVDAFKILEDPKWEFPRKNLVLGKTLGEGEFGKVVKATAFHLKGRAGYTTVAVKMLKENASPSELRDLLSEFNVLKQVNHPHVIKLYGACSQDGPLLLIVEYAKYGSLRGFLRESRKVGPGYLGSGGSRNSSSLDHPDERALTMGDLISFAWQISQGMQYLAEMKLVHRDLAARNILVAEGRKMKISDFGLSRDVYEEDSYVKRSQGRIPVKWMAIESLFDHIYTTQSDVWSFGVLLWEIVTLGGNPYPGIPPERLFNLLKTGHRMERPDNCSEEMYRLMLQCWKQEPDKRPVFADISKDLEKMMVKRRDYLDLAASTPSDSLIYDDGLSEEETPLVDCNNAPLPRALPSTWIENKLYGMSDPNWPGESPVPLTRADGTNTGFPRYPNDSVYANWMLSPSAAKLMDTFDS

With `CC(C)(C)c1cc(NC(=O)Nc2ccc(NC(=O)c3cn4c(n3)sc3ccccc34)cc2)no1`, the IC50 (as a rule, the concentration at which inhibition is half-maximal) with MV4-11 [1] turned out to be 0.44 nM. Further, the equilibrium dissociation constant (Kd) (commonly the constant that tells how readily two partners part at equilibrium) in series [2] was above 200 nM; in series [3], 7.5 nM; in [4] it was 10 nM; in series [5] it was 3 nM; in series [6] it was 2.2 nM; in [14] it was 1.6 nM. Further, the peak concentration (Cmax) (in general, the highest concentration seen after dosing) in series [7] is 2.36 µM. In the series on Mus musculus [8], the AUC (commonly the area under the concentration-time curve, a measure of exposure) was 13.2 µM·h. The half-life (usually the time needed for the level to fall by half in the phase considered) in [9] was 2.3 h. Besides, the figures for the Activity with MV4-11 [10] and in the series on Mus musculus [13] were 90 mm3 and below 5%, respectively. The result in the series on MV4-11 [11] was inactive. In addition, in the series on MV4-11 [12], the outcome was Active.
Turning to `CC(C)(C)c1cc(NC(=O)Nc2ccc(C(=O)Nc3cccnc3)cc2)no1`, the IC50 in the series with MV4-11 [1] came out at 199 nM. The Kd in series [14] is 25 nM.
Taken in the same sequence, the figures for `CC(C)(C)c1cc(NC(=O)Nc2ccc(NC(=O)c3nccc4ccccc34)cc2)no1` were 2.8 nM and 0.74 nM.
Regarding `CC(C)(C)c1cc(NC(=O)Nc2ccc(C(=O)Nc3ccccc3)cc2)no1`, the 50% inhibitory concentration (IC50) in the series on MV4-11 [1] worked out at 101 nM. In series [14], this molecule gave a Kd of 7.4 nM.
Taken in the same sequence, the figures for `CC(C)(C)c1cc(NC(=O)Nc2ccc(NC(=O)c3ccccc3)cc2)no1` were 30 nM and 0.98 nM.
The like results for `Cc1ccc2sc(C(=O)Nc3ccc(NC(=O)Nc4cc(C(C)(C)C)on4)cc3)cc2c1` were, in that order, 0.85 nM and 0.77 nM.
In the case of `CC(C)(C)c1cc(NC(=O)Nc2ccc(NC(=O)c3ccccn3)cc2)no1`, in the series on MV4-11 [1], the half-inhibitory concentration (IC50) was determined as 1.6 nM. For the same molecule, the equilibrium dissociation constant (Kd) in series [14] turned out to be 0.76 nM.
`CCN(CC)CCNC(=O)c1c(C)[nH]c(/C=C2\C(=O)Nc3ccc(F)cc32)c1C`: the result with MV4-11 [10] and in the series on MV4-11 [15] was Active.
`CC(C)(C)c1cc(NC(=O)Nc2ccc(NC(=O)c3cc4ccccc4cn3)cc2)no1`: the IC50 in the series with MV4-11 [1] stood at 0.29 nM. Further, the dissociation constant (Kd) in series [2] is above 200 nM; in [3] it was 1.8 nM; in series [5], 7.3 nM; in series [6] it was 7 nM. This molecule also had a maximum concentration (Cmax) in [7] of 1.31 µM. Moreover, the exposure (AUC) in the series with Mus musculus [8] is 4.25 µM·h. The molecule also gave a half-life in [9] of 2.2 h. For the same molecule, the figures for the Activity in the series with MV4-11 [10] and in the series on Mus musculus [13] were 90 mm3 and below 5%, respectively. Moreover, in the series on MV4-11 [11], the outcome was inactive.
Turning to `CC(C)(C)c1cc(NC(=O)Nc2ccc(NC(=O)c3ncccc3O)cc2)no1`, the IC50 in the series with MV4-11 [1] stood at 0.71 nM. Further, the Kd was determined as 0.96 nM in series [3]; 4.4 nM in series [4]; 4.7 nM in [5]; 2.6 nM in [6]; 0.74 nM in series [14].
As for `CC(C)(C)c1cc(NC(=O)Nc2ccc(NC(=O)c3ccc4ccccc4c3)cc2)no1`, the IC50 in the series with MV4-11 [1] amounted to 3.1 nM. Also, in series [14], the Kd was 0.75 nM.
Taken in the same sequence, the figures for `CC(C)(C)c1cc(NC(=O)Nc2ccc(NC(=O)c3cccnc3)cc2)no1` were 159 nM and 15 nM.
Taken in the same sequence, the figures for `CC(C)(C)c1cc(NC(=O)Nc2ccc(NC(=O)C3CCNCC3)cc2)no1` were 10500 nM and 240 nM.
The like results for `CC(C)(C)c1cc(NC(=O)Nc2ccc(NC(=O)c3cccc(O)n3)cc2)no1` were, in that order, 46.7 nM and 2.5 nM.
As to `CC(C)(C)c1cc(NC(=O)Nc2ccc(NC(=O)c3ccncc3)cc2)no1`, the IC50 with MV4-11 [1] is 132 nM. This molecule gave a Kd in series [14] of 10.1 nM.
Regarding `CC(C)(C)c1cc(NC(=O)Nc2ccc(NC(=O)Cc3ccccc3)cc2)no1`, the half-inhibitory concentration (IC50) in the series on MV4-11 [1] is 1090 nM. The Kd in series [14] is 510 nM.
The like results for `CC(C)(C)c1cc(NC(=O)Nc2ccc(C(=O)Nc3ccncc3)cc2)no1` were, in that order, 414 nM and 38.4 nM.
As for `CC(C)(C)c1cc(NC(=O)Nc2ccc(C(=O)Nc3ccccn3)cc2)no1`, the IC50 in the series on MV4-11 [1] amounted to 104 nM. The equilibrium dissociation constant (Kd) in series [14] came to 8.15 nM.
